Test results: patent publication US10154955B2, “Compositions including bauhinia, methods of making and using the same in skin anti-aging and other skin applications” (ACCESS BUSINESS GROUP INTERNATIONAL LLC, priority 2016, dated 2018)
Converted amounts (≈) assume the structure as drawn. “And” between values parts separate entries of the source, which are not always exact repeats. Equal values may be shown once.

Key:
[1] = Cell toxicity-CTG in HepG2 cells; assay type: cell-based; settings: human, FIG. 5
Experimental: On Day 1 of the procedure, Hep G2 [HEPG2] cells were plated on 96-well cell culture plates. To do so, disk was trypsinized and the cell density was determined. The cell slurry was diluted to the required volume at a density of 625,000 cells/ml. 160 ul/well of the cell slurry was dispensed onto assay plates. (100,000 cells per well). The assay plates were incubated overnight at 37 degrees C., 5% CO2 under humidified conditions. On Day 2, the cells were treated with […] and Hydroquinone or Vitamin C as a reference. 200× compounds were prepared in 100% DMSO. Transfer 5 ul 200× compound was transferred to 95 ul completed medium (MEM with 10% FBS), and mixed 5 times. 20 ul 10× compound solution was transferred onto assay plates. The assay plates were incubated at 37 degrees C., 5% CO2 under humidified conditions.

Hep G2 [HEPG2] cells = test: Anti-carbonylation assay (protein carbonyl ELISA after H2O2 treatment); assay type: cell-based; settings: 3 mM H2O2 4 hr, replicate values
Experimental: The purpose of this experiment was to test […] on anti-carbonylation assay using Hep G2 [HEPG2] (ATCC#HB-8065) cell line. The carbonylation process is related to protein degeneration and is similar to oxidation and glycation. On Day 1 of the procedure, Hep G2 [HEPG2] cells were plated on 96-well cell culture plates. To do so, disk was trypsinized and the cell density was determined. The cell slurry was diluted to the required volume at a density of 625,000 cells/ml. 160 ul/well of the cell slurry was dispensed onto assay plates. (100,000 cells per well). The assay plates were incubated overnight at 37 degrees C., 5% CO2 under humidified conditions. On Day 2, the cells were treated with […] and Hydroquinone or Vitamin C as a reference. 200× compounds were prepared in 100% DMSO. Transfer 5 ul 200× compound was transferred to 95 ul completed medium (MEM with 10% FBS), and mixed 5 times. 20 ul 10× compound solution was transferred onto assay plates. The assay plates were incubated at 37 degrees C., 5% CO2 under humidified conditions. Day 3 included treatment with H2O2. 30 mM H2O2 solution was prepared and 20 ul/well of H2O2 solution was dispensed onto assay plates (H2O2 final conc. 3 mM). The assay plates were incubated for 4 hr at 37 degrees C., 5% CO2 under humidified conditions. Following the incubation, the cell culture medium was discarded and cells once washed once with PBS. 60 ul PBS was added onto assay plate, frozen at -80° C. Frozen samples were recovered 3 times. […] The liquid supernatant was then transferred to compound plate. 5 ul of each cell lysis was obtained and the protein concentration was tested. The protein concentration was adjusted to 5 μg/ml with PBS and reduced BSA (total protein conc. 10 μg/ml), and mixed 5 times. 100 uL of the 5 ug/ml samples was then transferred onto the 96-well Protein Binding Plate, and incubated in 4° C. overnight. To perform ELISA assay on Day 5, the wells were washed 3 times with 250 μL PBS per well and excess wash solution removed. 100 μL of the 0.04 mg/ml DNPH Working Solution was added and the plates were incubated for 45 minutes at room temperature in the dark. The plates were then washed 5 times with 250 μL of PBS/Ethanol (1:1, v/v) with incubation on an orbital shaker for 5 minutes. Next, the plates were washed 2 times with 250 μL of PBS. 200 μL of Blocking Solution was added per well and the plates were incubated for 2 hours at room temperature on an orbital shaker, and then washed 3 times with 250 μL of 1× Wash Buffer with thorough aspiration between each wash. 100 μL anti-DNP antibody was added and the plates were incubated for 1 hour at room temperature on an orbital shaker. Next, the strip wells were washed 3 times (1× wash buffer), 100 μL of the diluted HRP conjugated secondary antibody was added to all wells and plates were incubated for 1 hour at room temperature on an orbital shaker. The strip wells were then washed 5 times (1× wash buffer). The Substrate Solution was warmed to room temperature and 100 μL of Substrate Solution was added to each well, 5 20 min. The enzyme reaction was stopped by adding 100 μL of Stop Solution to each well. […] Data Process included: • Signal=Sample 450 nm Signal-10 ug/ml Reduced BSA Signal • Protein Carbonyl Conc. (PCC)=(Signal-Y intercept)/Slope • % Inh=(Max PCC-Sample PCC)/(Max PCC-Min PCC)×100 • Max PCC was obtained from the cells treated with H2O2 • Min PCC was obtained from none treated cells • IC50 was calculated using GraphPad Prism V5.0 software

SMILES	IC50 [1] [µg/mL]	Carbonylation inhibition (Hep G2 [HEPG2] cells; 33 ug/ml) [%]	Carbonylation inhibition (Hep G2 [HEPG2] cells; 100 ug/ml) [%]	Carbonylation inhibition (Hep G2 [HEPG2] cells; 300 ug/ml)	inhibition at 33 µg/mL (Hep G2 [HEPG2] cells; Homo sapiens, HepG2, 4 h, 33 ug/ml) [%]	inhibition at 100 µg/mL (Hep G2 [HEPG2] cells; Homo sapiens, HepG2, 4 h, 100 ug/ml) [%]
Oc1ccc(O)cc1 [Hydroquinone]	8.44 (≈ 76.7 µM)					
O=C1O[C@H]([C@@H](O)CO)C(O)=C1O [Vit. C, Vitamin C]		28.6	64.6	49.1% and 76.2%	33.5	46.1
